Consider 5 molecules from patent publication US10717711B2, “Amino quinazolines as kinase inhibitors” (GlaxoSmithKline Intellectual Property Development Limited, priority 2011, dated 2020).

Where “and” joins values, the source holds several entries; their conditions need not be identical. Equal values may be shown once.

T1 sequence (O43353 whole entry): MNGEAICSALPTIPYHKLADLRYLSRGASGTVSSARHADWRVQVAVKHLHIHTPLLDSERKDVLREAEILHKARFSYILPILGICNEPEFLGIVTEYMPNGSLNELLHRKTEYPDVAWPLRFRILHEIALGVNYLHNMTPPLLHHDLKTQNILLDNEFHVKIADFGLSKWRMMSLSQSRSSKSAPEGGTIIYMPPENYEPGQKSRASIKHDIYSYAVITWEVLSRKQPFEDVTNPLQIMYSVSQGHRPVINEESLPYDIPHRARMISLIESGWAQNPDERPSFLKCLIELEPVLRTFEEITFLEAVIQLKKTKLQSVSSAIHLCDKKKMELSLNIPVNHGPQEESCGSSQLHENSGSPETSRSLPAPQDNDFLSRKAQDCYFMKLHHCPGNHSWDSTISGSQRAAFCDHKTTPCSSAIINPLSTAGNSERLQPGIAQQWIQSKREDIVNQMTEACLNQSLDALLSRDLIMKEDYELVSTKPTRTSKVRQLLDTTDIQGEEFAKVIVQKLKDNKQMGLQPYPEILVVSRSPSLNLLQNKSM

This test addresses T1, RIPK2 (full length FLAG His tagged RIPK2; RIP2 kinase) (Homo sapiens, UniProt O43353).
T1 construct: Full length FLAG His tagged RIPK2 was purified from a Baculovirus expression system; FLAG (N); 6His (N); made in house; host or cells: Spodoptera frugiperda (Sf9) insect cells, baculovirus
Put plainly: Fluorescent polarization based binding assay at the ATP binding pocket of RIPK2. Conditions: competition with fluorescently labeled ATP competitive ligand (5 nM); mean of a minimum of 2 experiments; approximate values; read-out: mean pIC50 (RIP2 kinase inhibition) (converted). From the text:
A fluorescent polarization based binding assay was developed to quantitate interaction of novel test compounds at the ATP binding pocket of RIPK2, by competition with a fluorescently labeled ATP competitive ligand. Full length FLAG His tagged RIPK2 was purified from a Baculovirus expression system and was used at a final assay concentration of twice the KDapparent. A fluorescent labeled ligand (5-({[2-({[3-({4-[(5-hydroxy-2-methylphenyl)amino]-2-pyrimidinyl}amino)phenyl]carbonyl}amino)ethyl] amino}carbonyl)-2-(6-hydroxy-3-oxo-3H-xanthen-9-yl)benzoic acid, prepared as described in WO2011/120025) was used at a final assay concentration of 5 nM. Both the enzyme and ligand were prepared in solutions in 50 mM HEPES pH7.5, 150 mM NaCl, 10 mM MgCl2, 1 mM DTT, and 1 mM CHAPS. Test compounds were prepared in 100% DMSO and 100 nL was dispensed to individual wells of a multiwell plate. Next, 5 ul RIPK2 was added to the test compounds at twice the final assay concentration, and incubated at rt for 10 min. Following the incubation, 5 ul of the fluorescent labeled ligand solution, was added to each reaction, at twice the final assay concentration, and incubated at rt for at least 10 min. Finally, samples were read on an instrument capable of measuring fluorescent polarization. Test compound inhibition was expressed as percent (%) inhibition of internal assay controls.
For concentration/dose response experiments, normalized data were fit and pIC50S determined using conventional techniques. The pIC50S are averaged to determine a mean value, for a minimum of 2 experiments.
Full-length human RIPK2 (receptor-interacting serine-threonine kinase 2) cDNA was purchased from Invitrogen (Carlsbad, Calif., USA, Clone ID:IOH6368, RIPK2-pENTR 221). Gateway® LR cloning was used to site-specifically recombine RIPK2 downstream to an N-terminal FLAG-6His contained within the destination vector pDEST8-FLAG-His6 according to the protocol described by Invitrogen. Transfection into Spodoptera frugiperda (Sf9) insect cells was performed using Cellfectin® (Invitrogen), according to the manufacturer's protocol.
Sf9 cells were grown in Excell 420 (SAFC Biosciences, Lenexa, Kans., US; Andover, Hampshire UK) growth media at 27° C., 80 rpm in shake flask until of a sufficient volume to inoculate a bioreactor. […] The insect cells were infected with Baculovirus at a multiplicity of infection (MOI) of 12.7. The cultivation was continued for a 43 hour expression phase. The infected cells were removed from the growth media by centrifugation at 2500 g using a Viafuge (Carr) continuous centrifuge at a flow rate of 80 litres/hour. The cell pellet was immediately frozen and subsequently supplied for purification.
Purification Procedure I: 9.83×10^10 Insect cells were re-suspended in 1.4 L lysis buffer (50 mM Tris (pH 8.0), 150 mM NaCl, 0.5 mM NaF, 0.1% Triton X-100, 1 mL/litre Protease Inhibitor Cocktail Set III (available from EMD Group; CalBiochem/Merck Biosciences, Gibbstown, N.J., US; Damstadt, Germany) and processed by dounce homogenization on ice. The suspension was then clarified by centrifugation at 47,900 g for 2 h, at 4° C. The lysate was decanted from the insoluble pellet and loaded at a linear flow rate of 16 cm/h onto a 55 mL FLAG-M2 affinity column (2.6×10.4 cm) that had been pre-equilibrated with 10 column volumes buffer A (50 mM Tris (pH 8.0), 150 mM NaCl, 0.5 mM NaF, 1 mL/litre Protease Inhibitor Cocktail Set III). […]
Turning to `CC(C)(C)S(=O)(=O)c1cc2c(Nc3ccc4scnc4c3)ncnc2cc1OCC(F)(F)F` [Example 23, N-(6-(tert-butylsulfonyl)-7-(2,2,2-trifluoroethoxy)quinazolin-4-yl)benzo[d]thiazol-5-amine], the IC50 was 1 to 100 nM.
For the molecule `COc1cc2ncnc(Nc3ccc4scnc4c3)c2cc1S(=O)(=O)C(C)(C)C` [Example 16, N-(6-(tert-butylsulfonyl)-7-methoxyquinazolin-4-yl)benzo[d]thiazol-5-amine], the IC50 is ~3.16 nM and 1 to 100 nM.
The result for `CC(C)(C)S(=O)(=O)c1ccc2ncnc(Nc3ccc4scnc4c3)c2c1` [Example 4, N-1,3-benzothiazol-5-yl-6-[(1,1-dimethylethyl)sulfonyl]-4-quinazolinamine] reads ~31.6 nM and 1 to 100 nM; that for `CC(C)S(=O)(=O)c1ccc2ncnc(Nc3ccc4scnc4c3)c2c1` [Example 6, N-1,3-benzothiazol-5-yl-6-[(1-methylethyl)sulfonyl]-4-quinazolinamine], 1 to 100 nM.
As to `CC(C)(C)S(=O)(=O)c1cc2c(Nc3ccc4scnc4c3)ncnc2cc1OCCO` [Example 21, 2-((4-(benzo[d]thiazol-5-ylamino)-6-(tert-butylsulfonyl)quinazolin-7-yl)oxy)ethanol], the IC50 was 1 to 100 nM.
